In US20240043420A1, “7-AZAINDOLE COMPOUNDS FOR INHIBITION OF BCR-ABL TYROSINE KINASES” (EnLiven Therapeutics, Inc., priority 2020, published 2024):

Columns and labels:
K562 cells = assay: K562 cell proliferation assay (CellTiter-Glo); format: cell-based; conditions: Homo sapiens, K562, 72 h, CellTiter-Glo viability, read-out: Cell Line (IC50, nM) K562
In short: (§1)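 Cells in IMDM/10% FBS seeded at 2,000 (K562) or 1,500 (HL60) per well, exposed to serially diluted compounds for 72 h at 37 °C, 5% CO2. Viability by CellTiter-Glo luminescence, normalized between DMSO (high) and cell-free media (low) controls.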

HL60 cells = assay: HL60 cell proliferation assay (CellTiter-Glo); format: cell-based; conditions: Homo sapiens, HL-60, 72 h, CellTiter-Glo viability, read-out: Cell Line (IC50, nM) HL60
In short: as §1

ABL1 = biological target: T1, ABL1 (Homo sapiens, UniProt P00519); assay: Luminescence-based ABL kinase assay (ADP-Glo, 300 μM ATP); format: biochemical
T1 construct: purchased Carna Biosciences
In short: (§2)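 Buffer: 50 mM HEPES pH 7.5, 10 mM MgCl2, 1 mM EGTA, 2 mM DTT, 0.05% BSA. Compound preincubated 30 min at RT with kinase (3.325 nM in enzyme solution), then started with a Peptide 2 (6 μM) and ATP (1.2 mM) solution, both stock levels; 90 min at RT.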

pCRKL in K562 cells = assay: pCRKL ELISA assay in K562 cells; format: cell-based; conditions: Homo sapiens, 1.5 h, 90 minutes incubation, read-out: PCRKL ELISA, Cell Line IC50 (nM) K562
Method: K562 or Ba/F3 ABL T315I cells (2.0*10^5 cells/100 μl/well) were seeded in 96 well (Corning, cat #3799). Compounds were dissolved in DMSO, serially diluted in DMSO and then were added, mixed, and incubated for 90 minutes at 37° C., 5% CO2. Following the 90-minute incubation, plates were centrifuged for 5 min at 3000 RPM and supernatant was removed from each well. Cells were washed 3 times with 150 μl PBS prior to addition of 100 μl cell RIPA lysis buffer (Boston BioProducts, cat #BP-115D) supplied with 1×complete ULTRA cocktail inhibitor (Roche, 05892791001) and 1×PhosSTOP Phosphatase Inhibitor Cocktail Tablets (Roche, 04906837001). Cells were incubated with lysis buffer for 1 hour at 4° C. prior to storage at −80 C.
A capture antibody able to detect phosphorylated and non-phosphorylated CRKL (R&D Systems, cat #AF5127) was added to Meso Scale Discovery (MSD) standard bind plates (MSD, cat #L15XA-3) at 5 ug/mL and incubated at 4° C. overnight. The next day, plates were washed with PBS+0.05% Tween20 (PBST) and 150 μl of 5% BSA blocking solution was added for 1 hour at room temperature with shaking. Plates were washed with PBST. Lysates were thawed and 30 μl of lysate was added to the MSD plates and incubated for 2 hours at room temperature with shaking. MSD plates were washed with PBST and 30 μl of a detection antibody that binds phosphorylated pCRKL (R&D Systems, cat #MAB6910) was added at 1 μg/mL to each well. Plates were incubated for 1 hour at room temperature with shaking. Plates were washed with PBST prior to addition of 30 μl of a sulfo tagged goat anti mouse detection antibody (MSD cat #R32AC-1). Plates were incubated for 1 hour at room temperature with shaking. Plates were washed with PBST prior to addition of 150 ul of 1×MSD read buffer T (MSD, cat 4R92TC-2). Electrochemiluminescence (ECLU) was read on an MSD plate reader (Meso Scale Discovery). The remaining activity by calculated as follows: 00 Relative activity=100×(ELCUsample−ECLULC)/(ECLUHC−ECLULC). The low and high controls (LC/HC) are generated from lysate from wells without cells or with cells treated with 0.1% DMSO, respectively. IC50 values were calculated using XLFit software using a nonlinear regression model with a sigmoidal dose response and are shown in Table 4 and Table 5 below.

ABL1 (T315I) = ABL1 (T315I) (Homo sapiens, UniProt P00519, T315I); assay: Luminescence-based ABL kinase assay (ADP-Glo, 300 μM ATP), T315I mutant; format: biochemical
In short: as §2

Row | SMILES | IC50 (K562 cells) | IC50 (HL60 cells) | IC50 (ABL1) | IC50 (pCRKL in K562 cells) | IC50 (ABL1 (T315I))
1 | COc1ccccc1-c1c[nH]c2nc(NC(=O)[C@@H]3C[C@@H]3F)ccc12 [Compound 3, (1S,2S)-2-fluoro-N-(3-(2-methoxyphenyl)-1H-pyrrolo[2,3-b]pyridin-6-yl)cyclopropane-1-carboxamide] | 80.3 nM | > 10000 nM | 8.17 nM | 174 nM | 0.896 nM
2 | COc1c(-c2c[nH]c3nc(NC(=O)C4CC4)ccc23)ccc2[nH]cnc12 [Compound 15, N-[3-(4-methoxy-1H-1,3-benzodiazol-5-yl)-1H-pyrrolo[2,3-b]pyridin-6-yl]cyclopropanecarboxamide] | 181 nM | 1710 nM | 12.1 nM | 468 nM | 2.78 nM
3 | COc1ncccc1-c1c[nH]c2nc(NC(=O)[C@H]3C[C@H]3F)ccc12 [Compound 26, (1R,2R)-2-fluoro-N-(3-(2-methoxypyridin-3-yl)-1H-pyrrolo[2,3-b]pyridin-6-yl)cyclopropane-1-carboxamide] | 220 nM | > 10000 nM | 62.9 nM | 680 nM | 68.4 nM
4 | COc1nccc(C)c1-c1c[nH]c2nc(NC(=O)[C@@H]3C[C@@H]3F)ccc12 [Compound 113, (1S,2S)-2-fluoro-N-[3-(2-methoxy-4-methylpyridin-3-yl)-1H-pyrrolo[2,3-b]pyridin-6-yl]cyclopropane-1-carboxamide] | 174 nM | > 10000 nM | 20.9 nM |  | 15.9 nM
5 | COc1c(-c2c[nH]c3nc(NC(=O)[C@@H]4C[C@@H]4F)ccc23)ccn2ncnc12 [Compound 115, (1S,2S)-2-fluoro-N-(3-[8-methoxy-[1,2,4]triazolo[1,5-a]pyridin-7-yl]-1H-pyrrolo[2,3-b]pyridin-6-yl)cyclopropane-1-carboxamide] | 382 nM | > 10000 nM | 124 nM |  | 151 nM
6 | COc1cccc(OC)c1-c1c[nH]c2nc(NC(=O)[C@@H]3C[C@@H]3F)ccc12 [Compound 118, (1S,2S)—N-[3-(2,6-dimethoxyphenyl)-1H-pyrrolo[2,3-b]pyridin-6-yl]-2-fluorocyclopropane-1-carboxamide] | 24.4 nM | > 10000 nM | 3.73 nM |  | 1.48 nM
7 | COc1ccc(F)c(OC)c1-c1c[nH]c2nc(NC(=O)[C@@H]3C[C@@H]3F)ccc12 [Compound 119, (1S,2S)-2-fluoro-N-[3-(3-fluoro-2,6-dimethoxyphenyl)-1H-pyrrolo[2,3-b]pyridin-6-yl]cyclopropane-1-carboxamide] | 32.2 nM | > 10000 nM | 4.67 nM |  | 2.57 nM
8 | COc1ccccc1-c1c[nH]c2nc(NC(=O)NCCN3CCNCC3)ccc12 [Compound 121, 3-[3-(2-methoxyphenyl)-1H-pyrrolo[2,3-b]pyridin-6-yl]-1-[2-(piperazin-1-yl)ethyl]urea] | 365 nM | > 10000 nM | 31.8 nM |  | 5.98 nM
9 | COc1ccccc1-c1c[nH]c2nc(NC(=O)NCCOCCN(C)C)ccc12 [Compound 124, 3-[2-[2-(dimethylamino)ethoxy]ethyl]-1-[3-(2-methoxyphenyl)-1H-pyrrolo[2,3-b]pyridin-6-yl]urea] | 359 nM | > 10000 nM | 317 nM |  | 30.6 nM
10 | COc1ncc(F)c(OC)c1-c1c[nH]c2nc(NC(=O)[C@H]3C[C@H]3F)ccc12 [Compound 125, (1R,2R)-2-fluoro-N-[3-(5-fluoro-2,4-dimethoxypyridin-3-yl)-1H-pyrrolo[2,3-b]pyridin-6-yl]cyclopropane-1-carboxamide] | 104 nM | > 10000 nM | 22.2 nM |  | 39.5 nM
11 | O=C(Nc1ccc2c(-c3cccnc3OCC(F)(F)F)c[nH]c2n1)[C@@H]1C[C@@H]1F [Compound 126, (1S,2S)-2-fluoro-N-(3-(2-(2,2,2-trifluoroethoxy)pyridin-3-yl)-1H-pyrrolo[2,3-b]pyridin-6-yl)cyclopropane-1-carboxamide] | 2010 nM | > 10000 nM | 2580 nM |  | 3860 nM
12 | O=C(Nc1ccc2c(-c3c(F)cccc3OC3CC3)c[nH]c2n1)[C@@H]1C[C@@H]1F [Compound 127, (1S,2S)—N-[3-(2-cyclopropoxy-6-fluorophenyl)-1H-pyrrolo[2,3-b]pyridin-6-yl]-2-fluorocyclopropane-1-carboxamide] | 100 nM | > 10000 nM | 22.1 nM |  | 0.745 nM
13 | CNCCCNC(=O)Nc1ccc2c(-c3c(OC)cccc3OC)c[nH]c2n1 [Compound 130, 1-[3-(2,6-dimethoxyphenyl)-1H-pyrrolo[2,3-b]pyridin-6-yl]-3-[3-(methylamino)propyl]urea] | 169 nM | > 10000 nM | 67 nM |  | 33.7 nM
14 | COc1cccc(OC)c1-c1c[nH]c2nc(NC(=O)NCCN(C)C)ccc12 [Compound 132, 1-[3-(2,6-dimethoxyphenyl)-1H-pyrrolo[2,3-b]pyridin-6-yl]-3-[2-(dimethylamino)ethyl]urea] | 234 nM | > 10000 nM | 143 nM |  | 97.5 nM
15 | O=C(NCCN1CCNCC1)Nc1ccc2c(-c3ccccc3OC3CC3)n[nH]c2n1 [Compound 136, 3-[3-(2-cyclopropoxyphenyl)-1H-pyrazolo[3,4-b]pyridin-6-yl]-1-[2-(piperazin-1-yl)ethyl]urea] | 333 nM | > 10000 nM | 27.4 nM |  | 54.5 nM
16 | COc1ccnc(OC)c1-c1c[nH]c2nc(NC(=O)NCCN3CCNCC3)ccc12 [Compound 137, 3-[3-(2,4-dimethoxypyridin-3-yl)-1H-pyrrolo[2,3-b]pyridin-6-yl]-1-[2-(piperazin-1-yl)ethyl]urea] | 733 nM | > 10000 nM | 36 nM |  | 40.6 nM
17 | COc1ncnc(OC)c1-c1c[nH]c2nc(NC(=O)NCCN3CCNCC3)ccc12 [Compound 138, 3-[3-(4,6-dimethoxypyrimidin-5-yl)-1H-pyrrolo[2,3-b]pyridin-6-yl]-1-[2-(piperazin-1-yl)ethyl]urea] | 527 nM | > 10000 nM | 51.2 nM |  | 140 nM
18 | COc1cc2ncsc2cc1-c1c[nH]c2nc(NC(=O)NCCN3CCNCC3)ccc12 [Compound 139, 3-[3-(5-methoxy-1,3-benzothiazol-6-yl)-1H-pyrrolo[2,3-b]pyridin-6-yl]-1-[2-(piperazin-1-yl)ethyl]urea; bis(formic acid)] | 1380 nM | > 10000 nM | 18.6 nM |  | 16.8 nM
19 | COc1nc(C)nc(OC)c1-c1c[nH]c2nc(NC(=O)[C@@H]3C[C@@H]3F)ccc12 [Compound 142, (1S,2S)—N-(3-(4,6-dimethoxy-2-methylpyrimidin-5-yl)-1H-pyrrolo[2,3-b]pyridin-6-yl)-2-fluorocyclopropane-1-carboxamide] | 34.5 nM | > 10000 nM | 14.6 nM |  | 14.3 nM
20 | COc1ncnc(OC2CC2)c1-c1c[nH]c2nc(NC(=O)[C@@H]3C[C@@H]3F)ccc12 [Compound 153, (1S,2S)—N-[3-(4-cyclopropoxy-6-methoxypyrimidin-5-yl)-1H-pyrrolo[2,3-b]pyridin-6-yl]-2-fluorocyclopropane-1-carboxamide] | 8.67 nM | > 10000 nM | 4.65 nM |  | 1.37 nM
21 | COc1nccc(OC2CC2)c1-c1c[nH]c2nc(NC(=O)[C@@H]3C[C@H]3OCCN(C)C)ccc12 [Compound 253] | 30.8 nM | > 10000 nM | 6.71 nM |  | 8.81 nM
